According to patent US9611232B2, “Oxazolidinone and imidazolidinone compounds” (Hoffmann-La Roche Inc., priority 2012, dated 2017):

Biological target: KCa3.1 (Homo sapiens (Human), UniProt O15554)
Assay: Thallium influx assay (FLIPR, FluxOR)
Assay type: cell-based
Details: CHOK1 cells over-expressing KCa3.1; thallium (3.3 mM)/ionomycin (1 μM) activation
Experimental: The thallium influx assay was performed with CHOK1 cells over-expressing KCa3.1 obtained from Evotec and maintained in MEM Alpha medium supplemented with 10% fetal bovine serum, 100 U/ml penicillin/[…] streptomycin and 250 μg/ml G418.
CHOK1 wild type cells were passaged using F12/Ham's medium supplemented with 10% fetal bovine serum, 2 mM glutamine, 100 U/ml penicillin/[…] streptomycin. All cells were cultured in T175 flasks.
Before the day of the assay, cells were harvested from culture flasks using standard trypsin digestion. Cells were counted and densities adjusted and dispensed into 384-well poly-D-lysine coated plates at 7500 […], assay plates were incubated overnight in CO2 incubator at 37° C.
The following day, growth media was removed followed by the addition of 25 ul/well of FluxOR™ (Invitrogen) loading dye in a gluconate based assay buffer (135 mM NaGluconate,
2.5 mM Kgluconate, 2 mM CaNO3, 1 mM MgNO3, 10 mM HEPES (acid), 5 mM glucose pH adjusted to 7.4). Assay plates were incubated for 1 hour at 37° C. The loading dye was then replaced with gluconate assay buffer containing probenecid.
Compounds diluted in gluconate buffer were transferred into the assay plates (25 μl/well) followed by incubation for 20 minutes at room temperature. The assay plates were then transferred to a Fluorometric Imaging Plate Reader (FLIPR), a baseline was read for twenty second capture, followed by the addition of 25 μl/well of channel activation solution in gluconate buffer—for KCa3.1 cells thallium (3.3 mM)/ionomycin(1 μM) was used and for the wild type, ionomycin only, then fluorescence was monitored for another 90 seconds.

Compound | IC50
NC(=O)CN1C(=O)OC(c2cccc(Cl)c2)(c2cccc(Cl)c2)[C@@H]1c1ccccc1 [Example 29, 2-[(S)-5,5-Bis-(3-chloro-phenyl)-2-oxo-4-phenyl-oxazolidin-3-yl]-acetamide] | 6700 nM
CCOC(=O)CN1C(=O)OC(c2ccc(F)cc2)(c2ccc(F)cc2)[C@@H]1c1ccc(F)cc1 [Example 6, [(S)-4,5,5-Tris-(4-fluoro-phenyl)-2-oxo-oxazolidin-3-yl]acetic acid ethyl ester] | 1340 nM
CNC(=O)CN1C(=O)OC(c2ccc(F)cc2)(c2ccc(F)cc2)[C@@H]1c1ccccc1F [Example 22, (S)-2-(4-(2-fluorophenyl)-5,5-bis(4-fluorophenyl)-2-oxooxazolidin-3-yl)-N-methylacetamide] | 600 nM
CCOC(=O)CN1C(=O)OC(c2ccc(F)cc2)(c2ccc(F)cc2)C1c1ccc(F)cc1F (centres unmarked) [Example 4, [4-(2,4-Difluoro-phenyl)-5,5-bis-(4-fluoro-phenyl)-2-oxo-oxazolidin-3-yl]-acetic acid ethyl ester] | 3140 nM
O=C1O[C@@H](c2cccc(C(F)(F)F)c2)[C@@H](c2ccc(F)cc2)N1Cc1ncco1 (racemic) [Example 39, (4RS,5SR)-4-(4-fluorophenyl)-3-(oxazol-2-ylmethyl)-5-(3-(trifluoromethyl)phenyl)oxazolidin-2-one] | 11000 nM
NC(=O)CN1C(=O)OC(c2ccc(F)cc2)(c2ccc(F)cc2)C1c1c(F)cccc1F (centres unmarked) [Example 8, 2-[4-(2,6-Difluoro-phenyl)-5,5-bis-(4-fluoro-phenyl)-2-oxo-oxazolidin-3-yl]-acetamide] | 7150 nM
NC(=O)CN1C(=O)OC(c2ccc(F)c(F)c2)(c2ccc(F)c(F)c2)[C@@H]1c1ccccc1 [Example 28, (S)-2-(5,5-bis(3,4-difluorophenyl)-2-oxo-4-phenyloxazolidin-3-yl)acetamide] | 770 nM
CCOC(=O)CN1C(=O)OC(c2ccccc2)(c2ccccc2)[C@@H]1c1ccccc1F [Example 16, [(S)-4-(2-Fluoro-phenyl)-2-oxo-5,5-diphenyl-oxazolidin-3-yl]-acetic acid ethyl ester] | 1000 nM
CCOC(=O)CN1C(=O)O[C@@H](c2ccc(F)cc2)[C@H]1c1cccc(C(F)(F)F)c1 (racemic) [Example 31, [(4RS,5SR)-5-(4-Fluoro-phenyl)-2-oxo-4-(3-trifluoromethyl-phenyl)-oxazolidin-3-yl]-acetic acid ethyl ester] | 7540 nM
CCNC(=O)CN1C(=O)OC(c2ccc(F)cc2)(c2ccc(F)cc2)[C@@H]1c1ccccc1F [Example 23, (S)—N-ethyl-2-(4-(2-fluorophenyl)-5,5-bis(4-fluorophenyl)-2-oxooxazolidin-3-yl)acetamide] | 1960 nM
CCOC(=O)CN1C(=O)O[C@@H](c2ccc(F)cc2)[C@H]1c1ccc(F)cc1 (racemic) [Example 34] | 6700 nM
NC(=O)CN1C(=O)OC(c2cccc(F)c2)(c2cccc(F)c2)[C@@H]1c1ccccc1 [Example 3, 2-[(S)-5,5-Bis-(3-fluoro-phenyl)-2-oxo-4-phenyl-oxazolidin-3-yl]-acetamide] | 630 nM
NC(=O)CN1C(=O)OC(c2ccc(F)cc2)(c2ccc(F)cc2)C1c1cccc(F)c1 (centres unmarked) [Example 9, 2-(4-(3-fluorophenyl)-5,5-bis(4-fluorophenyl)-2-oxooxazolidin-3-yl)acetamide] | 6050 nM
CCOC(=O)CN1C(=O)OC(c2ccccc2F)(c2ccccc2F)[C@@H]1c1ccccc1F [Example 12, [(S)-4,5,5-Tris-(2-fluoro-phenyl)-2-oxo-oxazolidin-3-yl]acetic acid ethyl ester] | 1100 nM
NC(=O)CN1C(=O)OC(c2ccccc2F)(c2ccccc2F)[C@@H]1c1ccccc1 [Example 2, 2-[(S)-5,5-Bis-(2-fluoro-phenyl)-2-oxo-4-phenyl-oxazolidin-3-yl]-acetamide] | 830 nM
CNC(=O)CN1C(=O)O[C@@H](c2cccc(C(F)(F)F)c2)[C@H]1c1ccc(F)cc1 (racemic) [Example 36] | 6600 nM
CCOC(=O)CN1C(=O)O[C@@H](c2cccc(C(F)(F)F)c2)[C@H]1c1cccc(C(F)(F)F)c1 (racemic) [Example 33] | 1560 nM
